Reference: PMC3395594, “Rational Engineering of Enzyme Allosteric Regulation through Sequence Evolution Analysis” (PLoS Computational Biology, 2012)
Where two headings read alike, the source gives them in different places.

Experiments:
Assay in all cases: malachite green phosphate release assay, fit to nonlinear noncompetitive inhibition
Format in all cases: biochemical
[1] = molecular target: T1, E. coli FBPase (fructose-1,6-bisphosphatase) (Escherichia coli, UniProt P0A993, K104Q)
T1 construct: gene fbp; full-length fbp in pET101/D-TOPO, reverse primer without stop (C-terminal vector tag with polyhistidine, no cleavage told), expressed in E. coli BL21 (DE3), Ni-NTA purified

[2] = molecular target: T2, E. coli FBPase (fructose-1,6-bisphosphatase) (Escherichia coli, UniProt P0A993, R132I)
T2 construct: gene fbp; full-length fbp in pET101/D-TOPO, reverse primer without stop (C-terminal vector tag with polyhistidine, no cleavage told), expressed in E. coli BL21 (DE3), Ni-NTA purified

[3] = molecular target: T3, E. coli FBPase (fructose-1,6-bisphosphatase) (Escherichia coli, UniProt P0A993)
T3 construct: gene fbp; full-length fbp in pET101/D-TOPO, reverse primer without stop (C-terminal vector tag with polyhistidine, no cleavage told), expressed in E. coli BL21 (DE3), Ni-NTA purified
T3 sequence (P0A993 1-332): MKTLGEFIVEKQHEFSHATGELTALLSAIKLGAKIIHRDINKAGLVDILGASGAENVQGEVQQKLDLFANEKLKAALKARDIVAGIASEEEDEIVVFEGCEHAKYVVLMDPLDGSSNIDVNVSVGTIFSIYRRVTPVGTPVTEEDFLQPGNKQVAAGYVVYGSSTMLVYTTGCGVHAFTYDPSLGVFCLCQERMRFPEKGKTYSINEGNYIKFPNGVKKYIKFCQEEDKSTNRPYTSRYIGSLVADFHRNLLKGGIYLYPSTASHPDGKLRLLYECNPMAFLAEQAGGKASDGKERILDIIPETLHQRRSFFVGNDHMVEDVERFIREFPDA
Excerpt: malachite green phosphate release assay, fit to nonlinear noncompetitive inhibition on E. coli FBPase (fructose-1,6-bisphosphatase) | Comparison of inhibition constants of wild-type and mutant FBPase by the allosteric inhibitor, AMP. | Comparison of inhibition constant of wild-type and mutant FBPase by the allosteric inhibitor, Glc-6-P.

[4] = molecular target: T4, E. coli FBPase (fructose-1,6-bisphosphatase) (Escherichia coli, UniProt P0A993, K104Q/K218Q/R132I/Y210F)
T4 construct: gene fbp; full-length fbp in pET101/D-TOPO, reverse primer without stop (C-terminal vector tag with polyhistidine, no cleavage told), expressed in E. coli BL21 (DE3), Ni-NTA purified

[5] = molecular target: T5, E. coli FBPase (fructose-1,6-bisphosphatase) (Escherichia coli, UniProt P0A993, K104Q/R132I)
T5 construct: gene fbp; full-length fbp in pET101/D-TOPO, reverse primer without stop (C-terminal vector tag with polyhistidine, no cleavage told), expressed in E. coli BL21 (DE3), Ni-NTA purified

[6] = molecular target: T6, E. coli FBPase (fructose-1,6-bisphosphatase) (Escherichia coli, UniProt P0A993, Y210F); conditions: allosteric Glc-6-P site, with respect to FBP, Mg2+, pH 7.5, 25 C
T6 construct: gene fbp; full-length fbp in pET101/D-TOPO, reverse primer without stop (C-terminal vector tag with polyhistidine, no cleavage told), expressed in E. coli BL21 (DE3), Ni-NTA purified

[7] = molecular target: T7, E. coli FBPase (fructose-1,6-bisphosphatase) (Escherichia coli, UniProt P0A993, Y210F/K218Q); conditions: allosteric Glc-6-P site, with respect to FBP, Mg2+, pH 7.5, 25 C
T7 construct: gene fbp; full-length fbp in pET101/D-TOPO, reverse primer without stop (C-terminal vector tag with polyhistidine, no cleavage told), expressed in E. coli BL21 (DE3), Ni-NTA purified

[8] = molecular target: T8, E. coli FBPase (fructose-1,6-bisphosphatase) (Escherichia coli, UniProt P0A993, K218Q); conditions: allosteric Glc-6-P site, with respect to FBP, Mg2+, pH 7.5, 25 C
T8 construct: gene fbp; full-length fbp in pET101/D-TOPO, reverse primer without stop (C-terminal vector tag with polyhistidine, no cleavage told), expressed in E. coli BL21 (DE3), Ni-NTA purified

[9] = molecular target: T9, E. coli FBPase (fructose-1,6-bisphosphatase) (Escherichia coli, UniProt P0A993, K104Q/R132I/Y210F/K218Q); conditions: allosteric Glc-6-P site; with respect to FBP; noncompetitive; Mg2+; pH 7.5, 25 C
T9 construct: gene fbp; full-length fbp in pET101/D-TOPO, reverse primer without stop (C-terminal vector tag with polyhistidine, no cleavage told), expressed in E. coli BL21 (DE3), Ni-NTA purified
T9 sequence (P0A993 whole entry K104Q/R132I/Y210F/K218Q): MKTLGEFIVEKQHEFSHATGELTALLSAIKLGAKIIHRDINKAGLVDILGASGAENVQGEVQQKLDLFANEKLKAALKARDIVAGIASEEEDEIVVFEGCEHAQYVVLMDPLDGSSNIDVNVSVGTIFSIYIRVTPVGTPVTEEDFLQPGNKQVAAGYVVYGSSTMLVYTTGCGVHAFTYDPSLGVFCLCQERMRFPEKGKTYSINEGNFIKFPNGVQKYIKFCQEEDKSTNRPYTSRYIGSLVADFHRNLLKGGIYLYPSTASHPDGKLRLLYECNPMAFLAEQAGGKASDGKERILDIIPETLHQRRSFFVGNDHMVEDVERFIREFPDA

T8 sequence (P0A993 whole entry K218Q): as the sequence (P0A993 whole entry K104Q/R132I/Y210F/K218Q) above, with Q104K, I132R, F210Y counted along it
T4 sequence (P0A993 whole entry K104Q/R132I/Y210F/K218Q): as the sequence (P0A993 whole entry K104Q/R132I/Y210F/K218Q) above
T6 sequence (P0A993 whole entry Y210F): as the sequence (P0A993 whole entry K104Q/R132I/Y210F/K218Q) above, with Q104K, I132R, Q218K counted along it
T2 sequence (P0A993 whole entry R132I): as the sequence (P0A993 whole entry K104Q/R132I/Y210F/K218Q) above, with Q104K, F210Y, Q218K counted along it
T5 sequence (P0A993 whole entry K104Q/R132I): as the sequence (P0A993 whole entry K104Q/R132I/Y210F/K218Q) above, with F210Y, Q218K counted along it
T7 sequence (P0A993 whole entry Y210F/K218Q): as the sequence (P0A993 whole entry K104Q/R132I/Y210F/K218Q) above, with Q104K, I132R counted along it
T1 sequence (P0A993 whole entry K104Q): as the sequence (P0A993 whole entry K104Q/R132I/Y210F/K218Q) above, with I132R, F210Y, Q218K counted along it

Ki [1] [µM] | Ki [2] [µM] | Ki [3] [µM] | Ki [4] [µM] | Ki [5] [µM] | Ki [6] [µM] | Ki [7] [µM] | Ki [8] [µM] | Ki ([3]; allosteric Glc-6-P site, with respect to FBP, noncompetitive, Mg2+, pH 7.5, 25 C) [µM] | Ki [9] [µM] | SMILES
419 ± 54.1 | 151 ± 12.9 | 10.1 ± 0.8 | 1680 ± 299 | 1460 ± 215 | – | – | – | – | – | Nc1ncnc2c1ncn2[C@@H]1O[C@H](COP(=O)(O)O)[C@@H](O)[C@H]1O [AMP]
– | – | – | – | – | 13100 ± 2900 | 20400 ± 7300 | 14100 ± 3900 | 800 ± 200 | 21100 ± 2900 | O=P(O)(O)OC[C@H]1OC(O)[C@H](O)[C@@H](O)[C@@H]1O (stereo partly shown) [Glc-6-P]
